According to publication PMC9409388 (2022):

Key:
[1] = tested on: KRAS (DNA, G4) GGGCGGTGTGGGAAGAGGGAAGAGGGGGAGG; assay: thiazole orange displacement (G4-FID); details: 100 mM KCl; 10 mM sodium cacodylate pH 7.3, 18 °C; thiazole orange displaced; from DC50, assumed TO Kb 2.5 × 10^6
[2] = tested on: BCL2 (DNA, G4) AGGGGCGGGCGCGGGAGGAAGGGGGCGGGAGCGGGGC; assay: thiazole orange displacement (G4-FID); details: 100 mM KCl; 10 mM sodium cacodylate pH 7.3, 18 °C; thiazole orange displaced; from DC50, assumed TO Kb 2.5 × 10^6
[3] = tested on: WNT1 (DNA, G4) GGGGGCCACCGGGCAGGGGGCGGGGG; assay: thiazole orange displacement (G4-FID); details: 100 mM KCl, 10 mM sodium cacodylate pH 7.3, 18 °C
[4] = tested on: Tel (DNA, G4) GGGTTAGGGTTAGGGTTAGGGTTA; assay: thiazole orange displacement (G4-FID); details: 100 mM KCl, 10 mM sodium cacodylate pH 7.3, 18 °C
[5] = tested on: c-KIT (DNA, G4) GGGAGGGCGCTGGGAGGAGGG; assay: thiazole orange displacement (G4-FID); details: 100 mM KCl; 10 mM sodium cacodylate pH 7.3, 18 °C; thiazole orange displaced; from DC50, assumed TO Kb 2.5 × 10^6
[6] = tested on: DNA hairpin (DNA, hairpin) CAATCGGATCGAATTCGATCCGATTG; assay: thiazole orange displacement (G4-FID); details: 100 mM KCl, 10 mM sodium cacodylate pH 7.3, 18 °C, thiazole orange displaced; for Kb: from DC50, TO Kb 3.03 × 10^6
[7] = tested on: c-MYC (DNA, G4) GGGGAGGGTGGGGAGGGTGGGGAAGG; assay: thiazole orange displacement (G4-FID); details: 100 mM KCl; 10 mM sodium cacodylate pH 7.3, 18 °C; 1 µM thiazole orange displaced, 0.5 µM DNA
[8] = tested on: VEGF (VEGFA) (DNA, G4) GGGGCGGGCCGGGGGCGGGG; assay: thiazole orange displacement (G4-FID); details: 100 mM KCl; 10 mM sodium cacodylate pH 7.3, 18 °C; thiazole orange displaced; from DC50, assumed TO Kb 2.5 × 10^6
[9] = tested on: c-MYC (DNA, G4) GGGGAGGGTGGGGAGGGTGGGGAAGG; assay: thiazole orange displacement (G4-FID); details: 100 mM KCl; 10 mM sodium cacodylate pH 7.3, 18 °C; thiazole orange displaced; from DC50, TO Kb 1.50 × 10^6
[10] = tested on: c-KIT (DNA, G4) GGGAGGGCGCTGGGAGGAGGG; assay: thiazole orange displacement (G4-FID); details: 100 mM KCl, 10 mM sodium cacodylate pH 7.3, 18 °C
[11] = tested on: VEGF (VEGFA) (DNA, G4) GGGGCGGGCCGGGGGCGGGG; assay: thiazole orange displacement (G4-FID); details: 100 mM KCl, 10 mM sodium cacodylate pH 7.3, 18 °C
[12] = tested on: WNT1 (DNA, G4) GGGGGCCACCGGGCAGGGGGCGGGGG; assay: thiazole orange displacement (G4-FID); details: 100 mM KCl; 10 mM sodium cacodylate pH 7.3, 18 °C; thiazole orange displaced; from DC50, assumed TO Kb 2.5 × 10^6
[13] = tested on: BCL2 (DNA, G4) AGGGGCGGGCGCGGGAGGAAGGGGGCGGGAGCGGGGC; assay: thiazole orange displacement (G4-FID); details: 100 mM KCl, 10 mM sodium cacodylate pH 7.3, 18 °C
[14] = tested on: KRAS (DNA, G4) GGGCGGTGTGGGAAGAGGGAAGAGGGGGAGG; assay: thiazole orange displacement (G4-FID); details: 100 mM KCl, 10 mM sodium cacodylate pH 7.3, 18 °C
[15] = tested on: Tel (DNA, G4) GGGTTAGGGTTAGGGTTAGGGTTA; assay: thiazole orange displacement (G4-FID); details: 100 mM KCl; 10 mM sodium cacodylate pH 7.3, 18 °C; thiazole orange displaced; from DC50, TO Kb 2.62 × 10^6
[16] = tested on: DNA hairpin (DNA, hairpin) CAATCGGATCGAATTCGATCCGATTG; assay: thiazole orange displacement (G4-FID); details: 100 mM KCl, 10 mM sodium cacodylate pH 7.3, 18 °C
[17] = tested on: c-MYC (DNA, G4) GGGGAGGGTGGGGAGGGTGGGGAAGG; assay: UV melting at 295 nm; details: 140 mM NaCl, 0.5 mM KCl; 20 mM Tris-HCl pH 7.3; 2 equivalents of compound, ~3 µM DNA
[18] = 1 µM thiazole orange displaced, 0.5 µM DNA
[19] = thiazole orange displaced, highest concentration 10 µM
[20] = thiazole orange displaced, above highest stated concentration (10 µM)

SMILES | Kb [1] | Kb [2] | DC50 [3, 18] [nM] | DC50 [4, 18] [nM] | Kb [5] | DC50 [7] [nM] | Kb [8] | Kb [9] | DC50 [10, 18] [nM] | DC50 [11, 18] [nM] | Kb [12] | DC50 [13, 18] [nM] | DC50 [14, 18] [nM] | Kb [15] | Kb [6] | increase in Tm [17] [°C] | DC50 [16, 20] [nM] | also measured
COc1cc(/C=C/C(=O)CC(=O)/C=C/c2ccc(O)c(OC)c2)ccc1O |  |  |  |  |  | 9620 ± 700 |  | 0.26 ± 0.02 × 10^6 M^-1 |  |  |  |  |  |  |  |  |  | DC50 [3, 19]: > 10000 nM; DC50 [4, 19]: > 10000 nM; DC50 [10, 19]: > 10000 nM; DC50 [11, 19]: > 10000 nM; DC50 [13, 19]: > 10000 nM; DC50 [14, 19]: > 10000 nM
O=c1c(O)c(-c2ccc(O)c(O)c2)oc2cc(O)cc(O)c12 | 1.72 ± 0.25 × 10^6 M^-1 | 5.56 ± 0.79 × 10^6 M^-1 | 1690 ± 240 | 490 ± 40 | 3.80 ± 0.54 × 10^6 M^-1 | 470 ± 30 | 3.10 ± 0.44 × 10^6 M^-1 | 5.33 ± 0.36 × 10^6 M^-1 | 920 ± 130 | 1130 ± 160 | 2.07 ± 0.30 × 10^6 M^-1 | 630 ± 90 | 2030 ± 300 | 7.43 ± 0.55 × 10^6 M^-1 | 0.038 ± 0.004 × 10^6 M^-1 | 3.0 ± 0.3 | 105260 ± 11080 | 
O=c1c(O)c(-c2ccc(O)cc2)oc2cc(O)cc(O)c12 | 1.63 ± 0.23 × 10^6 M^-1 | 1.75 ± 0.25 × 10^6 M^-1 | 1160 ± 160 | 2000 ± 150 | 1.63 ± 0.23 × 10^6 M^-1 | 2160 ± 150 | 2.09 ± 0.30 × 10^6 M^-1 | 1.16 ± 0.08 × 10^6 M^-1 | 2150 ± 300 | 1670 ± 240 | 3.03 ± 0.43 × 10^6 M^-1 | 2000 ± 280 | 2150 ± 310 | 1.81 ± 0.14 × 10^6 M^-1 | 0.035 ± 0.002 × 10^6 M^-1 |  | 114290 ± 6530 | 

Now from value to compound, other results behind:

Kb [1] | Kb [2] | DC50 [3, 18] [nM] | DC50 [4, 18] [nM] | Kb [5] | DC50 [7] [nM] | Kb [8] | Kb [9] | DC50 [10, 18] [nM] | DC50 [11, 18] [nM] | Kb [12] | DC50 [13, 18] [nM] | DC50 [14, 18] [nM] | Kb [15] | Kb [6] | increase in Tm [17] [°C] | DC50 [16, 20] [nM] | SMILES | also measured
1.52 ± 0.22 × 10^6 M^-1 | 2.87 ± 0.41 × 10^6 M^-1 | 1290 ± 190 | 2150 ± 170 | 1.61 ± 0.23 × 10^6 M^-1 | 3970 ± 250 | 1.50 ± 0.21 × 10^6 M^-1 | 0.63 ± 0.04 × 10^6 M^-1 | 2170 ± 310 | 2330 ± 330 | 2.71 ± 0.39 × 10^6 M^-1 | 1220 ± 100 | 2300 ± 330 | 1.68 ± 0.13 × 10^6 M^-1 |  |  |  | CC1=CC(=O)C(C(C)C)=CC1=O | binding ([6]; Kb printed as 0, up to 10 µM): no
0.93 ± 0.13 × 10^6 M^-1 | 4.12 ± 0.59 × 10^6 M^-1 | 1240 ± 170 | 8420 ± 590 | 3.28 ± 0.47 × 10^6 M^-1 | 320 ± 20 | 0.86 ± 0.12 × 10^6 M^-1 | 7.76 ± 0.53 × 10^6 M^-1 | 1070 ± 150 | 4070 ± 570 | 2.83 ± 0.40 × 10^6 M^-1 | 850 ± 120 | 3760 ± 530 | 0.43 ± 0.03 × 10^6 M^-1 | 1.30 ± 0.17 × 10^6 M^-1 | 3.5 ± 0.3 |  | C[n+]1cc2c3c(ccc2c2ccc4cc5c(cc4c21)OCO5)OCO3 | DC50 [16, 18]: 3080 ± 400 nM
1.62 ± 0.23 × 10^6 M^-1 | 3.65 ± 0.52 × 10^6 M^-1 | 1270 ± 180 | 2000 ± 150 | 1.44 ± 0.21 × 10^6 M^-1 | 850 ± 60 | 1.75 ± 0.25 × 10^6 M^-1 | 2.94 ± 0.20 × 10^6 M^-1 | 2430 ± 350 | 2000 ± 280 | 2.75 ± 0.39 × 10^6 M^-1 | 960 ± 140 | 2160 ± 310 | 1.81 ± 0.14 × 10^6 M^-1 |  |  |  | O=C(O[C@@H]1Cc2c(O)cc(O)cc2O[C@@H]1c1cc(O)c(O)c(O)c1)c1cc(O)c(O)c(O)c1 | 
